The values that follow come from patent US11584937B2, “Compositions and methods for controlling plant growth and development” (THE TRUSTEES OF THE UNIVERSITY OF PENNSYLVANIA, priority 2014, dated 2023).

The test system of experiment [1] is Arabidopsis. The experiment in a line: Number of rosette leaves (vegetative phase) and of cauline leaves and branches (first inflorescence phase) after hormone or inhibitor treatment. The format is in vivo, Arabidopsis thaliana.
Protocol: Plants were grown at 23° C. in a 16 h light/8 h dark cycle. The following plant lines were previously described: lfy-1 null and lfy-2 hypomorph mutants; lfy-6 null mutants, 35S:LFY-GR; 35S:LFY; gal-3; gai; pRGA:RGA-GFP; pRGA:RGA-HA; gal-3 rgl2-1 rga-2 35S:RGA-GR; pSPL9:rSPL-FLAG; 35S:AlcR pAlcA:mir156f; and 35S:SPL9-GR and pAP1:AP1-GFP. […] Most plants were in the Columbia background except for 35S:LFY-GR, pRGA:RGA-GFP, and lfy-6 mutants, which were in the Landsberg erecta background. To avoid comparisons of plants in different ecotype backgrounds, we performed crosses between homozygous transgenic plants and conducted all subsequent analyses in the F1 population. […] Statistical analyses were performed on plant phenotypes that are normally distributed. The population size was determined by expedience (tissue or plant amount that could reasonably be obtained).
For mock treatment, 0.01% ethanol (EtOH) with 0.01% Silwet L-77 was used as control. […] For paclobutrazol treatment in wild type to examine the number of rosette and cauline leaves formed (figure S8), wild-type plants were first germinated on MS plates. After 4 days plants were transferred either to MS plates containing 1 μM paclobutrazol or to control MS plates and grown for 6 more days. At day 10, the plants were transplanted to soil. […] For test of the number of rosette or cauline leaves produced under conditions of increased DELLA accumulation/activity (FIG. 4E), WT, 35S:LFY/-, pSPL9:rSPL9-FLAG/-, and 35S:LFY/- pSPL9:rSPL9-FLAG/- were first germinated on MS plates, followed by transfer to MS plates containing 1 μM paclobutrazol or to control MS plates from day 4 to day 10 of age. At day 10, the plants were transplanted onto soil.
Experiment [2] deals with APETALA1 (AP1). The experiment in a line: AP1 induction (qRT-PCR, pAP1:AP1-GFP imaging) in GR-fusion transgenic plants after treatment. The format is in vivo, Arabidopsis thaliana. As to conditions: 4 hours. In general terms: Quantitative PCR measures a nucleic acid by following its amplification.
Protocol: For mock treatment, 0.01% ethanol (EtOH) with 0.01% Silwet L-77 was used as control. […] For test of AP1 induction in single or double hemizygous transgenic lines (FIG. 4A, C, and figure S9) treatments were performed by spraying 16-day-old plants grown on plates once with 10 μM dexamethasone and/or 10 μM paclobutrazol. Tissues were harvested after 4 hours. […] 16-day-old 35S:AlcR pAlcA:mir156f/- 35S:LFY-GR/- plants were sprayed with 10 μM dexamethasone plus 10 μM paclobutrazol and exposed to ethanol vapor or water control. Tissues were harvested after 4 hours. […]
For qRT-PCR, RNA was isolated form entire plants after the switch to reproduction using TRIzol reagent (Invitrogen) and RNeasy Mini kits (Qiagen) and processed as previously described (45). […] Quantitative real-time PCR was performed using Power SYBR green mastermix (Applied Biosystems). The mean and standard error were determined using three technical replicates from one representative experiments. […]
For imaging of GFP fluorescence, inflorescence apices were dissected to remove older flowers and imaged using a Leica confocal microscope (Leica, LCS SL) equipped with an argon-krypton ion laser with the appropriate filter sets for visualizing GFP. […]
[3] abbreviates: wild-type plants, MS plates containing 1 μM paclobutrazol day 4 to day 10, versus control plates.

As for `CC(C)(C)[C@@H](O)[C@@H](Cc1ccc(Cl)cc1)n1cncn1` (racemic) [paclobutrazol], the “number of cauline leaves formed” value in experiment [1] (35S:LFY pSPL9:rSPL9-FLAG plants, 1 μM paclobutrazol day 4 to day 10, mean±SEM, 35S:LFY plants 2.5±0.2) is reported as 0.3±0.1. Besides, in experiment [1] (setting [3]), the “number of branches and cauline leaves (duration of the first inflorescence phase)” value is listed as “fewer”; the “number of rosette leaves (duration of the vegetative phase)” value was “more”. Also, the “pAP1:AP1-GFP expression in young flower primordia” value in experiment [2] (35S:LFY-GR plants, Dex 10 μM plus PAC 10 μM, confocal imaging) is “increase in AP1-GFP”. Also, the “production of AP1 in young flower primordia” value in experiment [2] (LFY-GR plants, 10 μM paclobutrazol simultaneously with 10 μM dexamethasone, relative to either alone) is “increased production of AP1”.
